# US20090227597A1, “PYRAZOLOPYRIMIDINONES AS PHOSPHODIESTERASE INHIBITORS” (CTG PHARMA S.R.L., priority 2004, published 2009)
# Structures can show the parent of a compound that is named as a salt.
# Legend:
# PDE5 enzyme = PDE5 enzyme (Homo sapiens, UniProt O76074); assay: in vitro inhibition of cGMP PDE5; assay type: biochemical
# Source text: The compounds of the present invention have been tested in vitro and found to be potent and selective inhibitors of cGMP PDE5.
Compound,IC50 (PDE5 enzyme) [nM],melting point [°C]
"CCCc1nn(C)c2c(=O)[nH]c(-c3cc(S(=O)(=O)N4CCN(CC(=O)Oc5ccc(-c6cc(=S)ss6)cc5)CC4)ccc3OCC)nc12 [Example 1, sildenafil analog ester with 5-(p-hydroxyphenyl)-3H-1,2-dithiol-3-thione]",6.8 to 7.2,188 to 189
"CCCc1nn(C)c2c(=O)[nH]c(-c3cc(S(=O)(=O)N4CCN(CC(=O)N[C@@H](CS)C(=O)O)CC4)ccc3OCC)nc12 (as salt: salt) (hydrate or solvate) [Example 2, sildenafil analog amide with cysteine]",–,166 to 168
"CCCc1nn(C)c2c(=O)[nH]c(-c3cc(S(=O)(=O)N4CCN(CC(=O)N[C@@H](CS)C(=O)O)CC4)ccc3OCC)nc12 [Example 2, sildenafil analog amide with cysteine]",6.8 to 7.2,–
